# ChEMBL document CHEMBL4052628, “Synthesis and cytotoxicity of a novel series of saframycin-ecteinascidin analogs containing tetrahydro-β-carboline moieties” (Eur J Med Chem, 2017)
# What was measured:
# Format in all cases: functional, cell-based
# [1] = test system: HCT-116; experiment: Cytotoxicity against human HCT116 cells assessed as reduction in cell viability after 72 hrs by MTT assay; details: HCT-116, 72 h
# [2] = test system: MCF7; experiment: Cytotoxicity against human MCF7 cells assessed as reduction in cell viability after 72 hrs by MTT assay; details: MCF7, 72 h
# [3] = test system: HepG2; experiment: Cytotoxicity against human HepG2 cells assessed as reduction in cell viability after 72 hrs by MTT assay; details: HepG2, 72 h
# [4] = test system: BGC-823; experiment: Cytotoxicity against human BGC823 cells assessed as reduction in cell viability after 72 hrs by MTT assay; details: BGC-823, 72 h
# [5] = test system: A2780; experiment: Cytotoxicity against human A2780 cells assessed as reduction in cell viability after 72 hrs by MTT assay; details: A2780, 72 h
# [6] = test system: HT-29; experiment: Cytotoxicity against human HT-29 cells assessed as reduction in cell viability after 72 hrs by MTT assay; details: HT-29, 72 h
SMILES,IC50 [1],IC50 [2],IC50 [3],IC50 [4],IC50 [5],IC50 [6]
CN1[C@@H]2c3[nH]c4ccccc4c3C[C@H]1[C@H](C#N)N1[C@@H](CNC(=O)c3cc4ccccc4s3)c3[nH]c4ccccc4c3C[C@@H]21,500 nM,3180 nM,300 nM,240 nM,20 nM,640 nM
CN1[C@@H]2c3[nH]c4ccccc4c3C[C@H]1[C@H](C#N)N1[C@@H](CNC(=O)c3ccccc3)c3[nH]c4ccccc4c3C[C@@H]21,430 nM,9670 nM,250 nM,740 nM,200 nM,140 nM
COc1ccc(/C=C/C(=O)NC[C@H]2c3[nH]c4ccccc4c3C[C@H]3[C@H]4c5[nH]c6ccccc6c5C[C@@H]([C@H](C#N)N23)N4C)cc1,5060 nM,4220 nM,2140 nM,5450 nM,860 nM,3060 nM
CN1[C@@H]2c3[nH]c4ccccc4c3C[C@H]1[C@H](C#N)N1[C@@H](CNC(=O)c3cc4ccccc4[nH]3)c3[nH]c4ccccc4c3C[C@@H]21,880 nM,9780 nM,440 nM,1690 nM,7100 nM,1220 nM
CN1[C@@H]2c3[nH]c4ccccc4c3C[C@H]1[C@H](C#N)N1[C@@H](CNC(=O)c3ccc(F)cc3)c3[nH]c4ccccc4c3C[C@@H]21,140 nM,980 nM,210 nM,310 nM,250 nM,1370 nM
CN1[C@@H]2c3[nH]c4ccccc4c3C[C@H]1[C@H](C#N)N1[C@@H](CNC(=O)c3cccs3)c3[nH]c4ccccc4c3C[C@@H]21,550 nM,470 nM,180 nM,280 nM,230 nM,1330 nM
CN1[C@@H]2c3[nH]c4ccccc4c3C[C@H]1[C@H](C#N)N1[C@@H](CNC(=O)/C=C/c3ccccc3)c3[nH]c4ccccc4c3C[C@@H]21,1960 nM,7190 nM,470 nM,4300 nM,770 nM,1400 nM
CN1[C@@H]2c3[nH]c4ccccc4c3C[C@H]1[C@H](C#N)N1[C@@H](CN3C(=O)c4ccccc4C3=O)c3[nH]c4ccccc4c3C[C@@H]21,40 nM,610 nM,20 nM,410 nM,80 nM,80 nM
CN1[C@@H]2c3[nH]c4ccccc4c3C[C@H]1[C@H](C#N)N1[C@@H](CNC(=O)/C=C/c3cccc(C(F)(F)F)c3)c3[nH]c4ccccc4c3C[C@@H]21,610 nM,110 nM,540 nM,910 nM,> 10000 nM,5060 nM
CN1[C@@H]2c3[nH]c4ccccc4c3C[C@H]1[C@H](C#N)N1[C@@H](CNC(=O)c3cccc4c3CCCC4)c3[nH]c4ccccc4c3C[C@@H]21,4210 nM,4470 nM,540 nM,3540 nM,810 nM,3340 nM
CN1[C@@H]2c3[nH]c4ccccc4c3C[C@H]1[C@H](C#N)N1[C@@H](CNC(=O)c3ccc4ccccc4n3)c3[nH]c4ccccc4c3C[C@@H]21,240 nM,150 nM,110 nM,80 nM,60 nM,150 nM
CN1[C@@H]2c3[nH]c4ccccc4c3C[C@H]1[C@H](C#N)N1[C@@H](CNC(=O)c3ccc(Cl)cc3)c3[nH]c4ccccc4c3C[C@@H]21,630 nM,610 nM,350 nM,110 nM,230 nM,130 nM
CN1[C@@H]2c3[nH]c4ccccc4c3C[C@H]1[C@H](C#N)N1[C@@H](CNC(=O)c3cc4ccccc4o3)c3[nH]c4ccccc4c3C[C@@H]21,330 nM,320 nM,280 nM,210 nM,230 nM,850 nM
COc1ccc(C(=O)NC[C@H]2c3[nH]c4ccccc4c3C[C@H]3[C@H]4c5[nH]c6ccccc6c5C[C@@H]([C@H](C#N)N23)N4C)cc1,430 nM,600 nM,310 nM,320 nM,320 nM,840 nM
CC(=O)NC[C@H]1c2[nH]c3ccccc3c2C[C@H]2[C@H]3c4[nH]c5ccccc5c4C[C@@H]([C@H](C#N)N12)N3C,4340 nM,5300 nM,420 nM,2200 nM,630 nM,1180 nM
CN1[C@@H]2c3[nH]c4ccccc4c3C[C@H]1[C@H](C#N)N1[C@@H](CNC(=O)c3ccco3)c3[nH]c4ccccc4c3C[C@@H]21,170 nM,160 nM,250 nM,300 nM,120 nM,100 nM
CCc1ccc(C(=O)NC[C@H]2c3[nH]c4ccccc4c3C[C@H]3[C@H]4c5[nH]c6ccccc6c5C[C@@H]([C@H](C#N)N23)N4C)cc1,100 nM,170 nM,570 nM,660 nM,670 nM,3560 nM
CN1[C@@H]2c3[nH]c4ccccc4c3C[C@H]1[C@H](C#N)N1[C@@H](CNC(=O)c3cccc(C(F)(F)F)c3)c3[nH]c4ccccc4c3C[C@@H]21,630 nM,110 nM,340 nM,870 nM,210 nM,140 nM
CN1[C@@H]2c3[nH]c4ccccc4c3C[C@H]1[C@H](C#N)N1[C@@H](CNC(=O)c3ccccn3)c3[nH]c4ccccc4c3C[C@@H]21,40 nM,40 nM,70 nM,80 nM,30 nM,70 nM
CN1[C@@H]2c3[nH]c4ccccc4c3C[C@H]1[C@H](C#N)N1[C@@H](CNC(=O)c3ccc4ccccc4c3)c3[nH]c4ccccc4c3C[C@@H]21,420 nM,4650 nM,1210 nM,1110 nM,1030 nM,4940 nM
